# Oligonucleotides are given in HELM: sugar(base)linkage, 5' to 3'; d 2'-deoxyribose, r ribose, m 2'-O-methylribose, p phosphate. ss, as = sense and antisense strand
# Target: TMEM63B
# Assay: reporter assay of Huesken 2005
# Details: siRNA
# Also: test concentration or dose not given here.
row,Substance,normalised inhibition (eCFP-eYFP dual reporter)
1,RNA1{r(G)p.r(U)p.r(G)p.r(G)p.r(U)p.r(U)p.r(G)p.r(U)p.r(G)p.r(G)p.r(G)p.r(C)p.r(G)p.r(U)p.r(C)p.r(C)p.r(U)p.r(C)p.r(U)p.d(T)p.d(T)}|RNA2{r(A)p.r(G)p.r(A)p.r(G)p.r(G)p.r(A)p.r(C)p.r(G)p.r(C)p.r(C)p.r(C)p.r(A)p.r(C)p.r(A)p.r(A)p.r(C)p.r(C)p.r(A)p.r(C)p.d(C)p.d(A)}$$$RNA1{StrandType:ss}|RNA2{StrandType:as}$,53.5%
2,RNA1{r(C)p.r(G)p.r(A)p.r(G)p.r(G)p.r(C)p.r(U)p.r(G)p.r(U)p.r(G)p.r(A)p.r(G)p.r(C)p.r(A)p.r(G)p.r(G)p.r(U)p.r(G)p.r(G)p.d(T)p.d(T)}|RNA2{r(C)p.r(C)p.r(A)p.r(C)p.r(C)p.r(U)p.r(G)p.r(C)p.r(U)p.r(C)p.r(A)p.r(C)p.r(A)p.r(G)p.r(C)p.r(C)p.r(U)p.r(C)p.r(G)p.d(C)p.d(A)}$$$RNA1{StrandType:ss}|RNA2{StrandType:as}$,42.2%
3,RNA1{r(G)p.r(A)p.r(C)p.r(U)p.r(U)p.r(C)p.r(A)p.r(A)p.r(C)p.r(G)p.r(U)p.r(G)p.r(U)p.r(G)p.r(U)p.r(A)p.r(A)p.r(A)p.r(U)p.d(T)p.d(T)}|RNA2{r(A)p.r(U)p.r(U)p.r(U)p.r(A)p.r(C)p.r(A)p.r(C)p.r(A)p.r(C)p.r(G)p.r(U)p.r(U)p.r(G)p.r(A)p.r(A)p.r(G)p.r(U)p.r(C)p.d(C)p.d(T)}$$$RNA1{StrandType:ss}|RNA2{StrandType:as}$,102%
4,RNA1{r(C)p.r(C)p.r(U)p.r(C)p.r(U)p.r(U)p.r(C)p.r(A)p.r(U)p.r(C)p.r(A)p.r(A)p.r(U)p.r(G)p.r(G)p.r(A)p.r(A)p.r(U)p.r(C)p.d(T)p.d(T)}|RNA2{r(G)p.r(A)p.r(U)p.r(U)p.r(C)p.r(C)p.r(A)p.r(U)p.r(U)p.r(G)p.r(A)p.r(U)p.r(G)p.r(A)p.r(A)p.r(G)p.r(A)p.r(G)p.r(G)p.d(G)p.d(T)}$$$RNA1{StrandType:ss}|RNA2{StrandType:as}$,73.9%
5,RNA1{r(U)p.r(G)p.r(A)p.r(C)p.r(C)p.r(A)p.r(A)p.r(A)p.r(G)p.r(G)p.r(G)p.r(A)p.r(C)p.r(A)p.r(A)p.r(U)p.r(G)p.r(G)p.r(U)p.d(T)p.d(T)}|RNA2{r(A)p.r(C)p.r(C)p.r(A)p.r(U)p.r(U)p.r(G)p.r(U)p.r(C)p.r(C)p.r(C)p.r(U)p.r(U)p.r(U)p.r(G)p.r(G)p.r(U)p.r(C)p.r(A)p.d(A)p.d(A)}$$$RNA1{StrandType:ss}|RNA2{StrandType:as}$,70.9%
6,RNA1{r(U)p.r(A)p.r(C)p.r(C)p.r(U)p.r(C)p.r(A)p.r(G)p.r(U)p.r(G)p.r(C)p.r(C)p.r(C)p.r(A)p.r(C)p.r(A)p.r(A)p.r(C)p.r(U)p.d(T)p.d(T)}|RNA2{r(A)p.r(G)p.r(U)p.r(U)p.r(G)p.r(U)p.r(G)p.r(G)p.r(G)p.r(C)p.r(A)p.r(C)p.r(U)p.r(G)p.r(A)p.r(G)p.r(G)p.r(U)p.r(A)p.d(T)p.d(T)}$$$RNA1{StrandType:ss}|RNA2{StrandType:as}$,51.3%
7,RNA1{r(U)p.r(C)p.r(U)p.r(G)p.r(U)p.r(C)p.r(U)p.r(C)p.r(U)p.r(G)p.r(C)p.r(C)p.r(A)p.r(C)p.r(G)p.r(U)p.r(C)p.r(U)p.r(G)p.d(T)p.d(T)}|RNA2{r(C)p.r(A)p.r(G)p.r(A)p.r(C)p.r(G)p.r(U)p.r(G)p.r(G)p.r(C)p.r(A)p.r(G)p.r(A)p.r(G)p.r(A)p.r(C)p.r(A)p.r(G)p.r(A)p.d(T)p.d(G)}$$$RNA1{StrandType:ss}|RNA2{StrandType:as}$,68.3%
8,RNA1{r(C)p.r(A)p.r(C)p.r(U)p.r(U)p.r(C)p.r(A)p.r(A)p.r(A)p.r(U)p.r(A)p.r(C)p.r(C)p.r(U)p.r(C)p.r(A)p.r(G)p.r(U)p.r(G)p.d(T)p.d(T)}|RNA2{r(C)p.r(A)p.r(C)p.r(U)p.r(G)p.r(A)p.r(G)p.r(G)p.r(U)p.r(A)p.r(U)p.r(U)p.r(U)p.r(G)p.r(A)p.r(A)p.r(G)p.r(U)p.r(G)p.d(T)p.d(C)}$$$RNA1{StrandType:ss}|RNA2{StrandType:as}$,55%
9,RNA1{r(U)p.r(G)p.r(G)p.r(U)p.r(G)p.r(C)p.r(U)p.r(U)p.r(C)p.r(U)p.r(C)p.r(G)p.r(G)p.r(C)p.r(C)p.r(C)p.r(U)p.r(C)p.r(C)p.d(T)p.d(T)}|RNA2{r(G)p.r(G)p.r(A)p.r(G)p.r(G)p.r(G)p.r(C)p.r(C)p.r(G)p.r(A)p.r(G)p.r(A)p.r(A)p.r(G)p.r(C)p.r(A)p.r(C)p.r(C)p.r(A)p.d(C)p.d(A)}$$$RNA1{StrandType:ss}|RNA2{StrandType:as}$,65.1%
10,RNA1{r(C)p.r(C)p.r(G)p.r(C)p.r(C)p.r(G)p.r(A)p.r(G)p.r(A)p.r(G)p.r(G)p.r(C)p.r(G)p.r(C)p.r(A)p.r(A)p.r(C)p.r(G)p.r(U)p.d(T)p.d(T)}|RNA2{r(A)p.r(C)p.r(G)p.r(U)p.r(U)p.r(G)p.r(C)p.r(G)p.r(C)p.r(C)p.r(U)p.r(C)p.r(U)p.r(C)p.r(G)p.r(G)p.r(C)p.r(G)p.r(G)p.d(C)p.d(C)}$$$RNA1{StrandType:ss}|RNA2{StrandType:as}$,21.8%
11,RNA1{r(C)p.r(C)p.r(U)p.r(G)p.r(C)p.r(U)p.r(C)p.r(A)p.r(U)p.r(G)p.r(U)p.r(A)p.r(C)p.r(A)p.r(U)p.r(G)p.r(A)p.r(U)p.r(C)p.d(T)p.d(T)}|RNA2{r(G)p.r(A)p.r(U)p.r(C)p.r(A)p.r(U)p.r(G)p.r(U)p.r(A)p.r(C)p.r(A)p.r(U)p.r(G)p.r(A)p.r(G)p.r(C)p.r(A)p.r(G)p.r(G)p.d(C)p.d(C)}$$$RNA1{StrandType:ss}|RNA2{StrandType:as}$,73.1%
12,RNA1{r(C)p.r(G)p.r(U)p.r(G)p.r(U)p.r(G)p.r(U)p.r(A)p.r(A)p.r(A)p.r(U)p.r(G)p.r(C)p.r(C)p.r(A)p.r(G)p.r(G)p.r(G)p.r(C)p.d(T)p.d(T)}|RNA2{r(G)p.r(C)p.r(C)p.r(C)p.r(U)p.r(G)p.r(G)p.r(C)p.r(A)p.r(U)p.r(U)p.r(U)p.r(A)p.r(C)p.r(A)p.r(C)p.r(A)p.r(C)p.r(G)p.d(T)p.d(T)}$$$RNA1{StrandType:ss}|RNA2{StrandType:as}$,52.1%
13,RNA1{r(C)p.r(G)p.r(C)p.r(C)p.r(C)p.r(U)p.r(C)p.r(A)p.r(C)p.r(G)p.r(G)p.r(A)p.r(C)p.r(A)p.r(C)p.r(A)p.r(G)p.r(A)p.r(C)p.d(T)p.d(T)}|RNA2{r(G)p.r(U)p.r(C)p.r(U)p.r(G)p.r(U)p.r(G)p.r(U)p.r(C)p.r(C)p.r(G)p.r(U)p.r(G)p.r(A)p.r(G)p.r(G)p.r(G)p.r(C)p.r(G)p.d(T)p.d(C)}$$$RNA1{StrandType:ss}|RNA2{StrandType:as}$,59.1%
14,RNA1{r(A)p.r(U)p.r(G)p.r(G)p.r(A)p.r(A)p.r(U)p.r(C)p.r(U)p.r(C)p.r(C)p.r(A)p.r(A)p.r(A)p.r(U)p.r(A)p.r(U)p.r(G)p.r(C)p.d(T)p.d(T)}|RNA2{r(G)p.r(C)p.r(A)p.r(U)p.r(A)p.r(U)p.r(U)p.r(U)p.r(G)p.r(G)p.r(A)p.r(G)p.r(A)p.r(U)p.r(U)p.r(C)p.r(C)p.r(A)p.r(U)p.d(T)p.d(G)}$$$RNA1{StrandType:ss}|RNA2{StrandType:as}$,78.7%
